Where two headings read alike, the source gives them in different places.
Experiments:
[1] = system: hCoV OC43; assay: Inhibition of OC43-induced cytopathogenicity in Vero-76 cells (MTT); format: cell-based
[2] = in vitro; settings: African green monkey (Cercopithecus aethiops)
[3] = Cytotoxicity in Vero-76 cells (MTT); settings: African green monkey (Cercopithecus aethiops); for CC50: Vero-76 cells
[4] = Cytotoxicity in SK-MES-1 cells (MTT); format: cell-based; settings: human
[5] = system: SARS-CoV-2; format: cell-based
[6] = system: hCoV-229E; assay: microbe, parasite or virus in culture; format: cell-based; settings: for EC50: Human coronavirus 229E
[7] = system: EV-A71; assay: Inhibition of EVA71-induced cytopathogenicity (MTT); format: cell-based; settings: Enterovirus A, 50% protection from EVA71-induced cytopathogenicity
[8] = system: OC43; assay: Cell pretreatment assay (OC43, Vero-76); format: cell-based, hCoV-OC43; settings: 2 h pre-treatment, 50, 20, 4, 0.8 μM, viability after six days
[9] = system: Vero-76 cells
[10] = system: Mpro of SARS-CoV-2; design: method as in earlier work; settings: ref [41]; cited from earlier work
[11] = Cytotoxicity in Caco-2 cells (MTT); format: cell-based, human; settings: human, MTT; for CC50 at 24 h: Caco-2, 24 h; for CC50 at 72 h: Caco-2, 72 h
[12] = system: hCoV-229E; design: method as in earlier work; settings: Huh-7 cells; ref [41]; read-out: EC50, replication of HCoV-229E in Huh-7 cells; cited from earlier work
[13] = system: OC43; assay: Adsorption assay (OC43, Vero-76); settings: virus and cells incubated at 4 °C in presence of compound
[14] = system: OC43; assay: OC43 yield reduction assay in Vero-76 cells; format: cell-based, hCoV-OC43
[15] = system: Caco-2 cells; assay: Cytotoxicity in Caco-2 cells (MTT); format: cell-based, human
[16] = system: OC43; assay: OC43 virucidal activity assay; format: cell-based, hCoV-OC43; settings: 0 °C and 37 °C, before cell infection
[17] = Betacoronavirus 1, 50% protection of Vero-76 cells from OC43-induced cytopathogenicity, MTT, read-out: OC43 EC50
[18] = Betacoronavirus 1, OC43, Vero 76, cinnamic acids, read-out: OC43 EC50 (Table S1)
[19] = SK-MES-1, cinnamic acids, read-out: 229E EC50 (Table S1)
[20] = 50% protection of SK-MES-1 cells from 229E-induced cytopathogenicity, MTT, read-out: 229E EC50

Molecule `CCN(CCO)CCCC(C)Nc1ccnc2cc(Cl)ccc12` (stereo not drawn) [Hydroxychloroquine, reference compound] has an EC50 [1, 17] of 1.9 ± 0.8 µM and a CC50 at 120 h [2] of 60 µM.

With `COc1cc(/C=C/C(=O)O)cc(OC)c1O` [Compound A7, sinapic acid] the “activity against OC43 (words)” value [1] was “no anti-beta coronavirus activity”, the EC50 [1, 18] was > 44 µM and the CC50 [3] was 44 µM. The CC50 ([4]; cinnamic acids, read-out: SK-MES-1 CC50 (Table S1)) was > 100 µM, the “activity against SARS-CoV-2 (words)” value [5] was “no anti-beta coronavirus activity” and the EC50 [6, 19] was > 100 µM.

With `COc1ccc(/C=C/C(=O)Oc2cc(O)c3c(=O)c(O)c(-c4ccc(O)c(O)c4)oc3c2)cc1OC` [Compound 1] the “activity against OC43 (words)” value [1] was “no activity”, the EC50 [1, 17] was > 54.7 µM and the CC50 at 120 h [2] was 54.7 µM. The “activity against SARS-CoV-2 (words)” value [5] was “no activity”.

In the case of `O=C(O)/C=C/c1ccc(O)cc1` [Compound A3], the EC50 [1, 18] is reported as > 100 µM and the CC50 [3] is reported as > 100 µM.

In the case of `O=C(O)/C=C/c1ccccc1O` [Compound A4], the EC50 [1, 18] is reported as > 100 µM and the CC50 [2] is reported as > 100 µM.

For `CCC(CC)COC(=O)[C@H](C)N[P@](=O)(OC[C@H]1O[C@@](C#N)(c2ccc3c(N)ncnn23)[C@H](O)[C@@H]1O)Oc1ccccc1` [Remdesivir, reference compound], the CC50 at 120 h [2] was > 100 µM, the CC50 at 48 h [4] was > 100 µM and the EC50 [6, 20] was 5 ± 1 µM.

In the case of `O=C(/C=C/c1ccc(O)cc1)Oc1cc(O)c2c(=O)c(O)c(-c3ccc(O)c(O)c3)oc2c1` [Compound 3], the “activity against OC43 (words)” value [1] is reported as “no evidence of activity”, the EC50 [1, 17] is reported as > 60 µM and the CC50 at 120 h [2] is reported as 60 µM.

With `COc1cc(/C=C/C(=O)Oc2cc(O)c3c(=O)c(O)c(-c4ccc(O)c(O)c4)oc3c2)ccc1O` [Compound 2] the EC50 [1, 17] was > 11.4 µM and the CC50 at 120 h [2] was 11.4 µM.

With `COc1ccc(/C=C/C(=O)O)cc1OC` [Compound A1] the EC50 [1, 18] was > 100 µM and the CC50 [2] was > 100 µM.

With `O=C(/C=C/c1ccccc1O)Oc1cc(O)c2c(=O)c(O)c(-c3ccc(O)c(O)c3)oc2c1` [Compound 4] the EC50 [1, 17] was > 78 µM and the CC50 at 120 h [2] was 78 µM.

For `CCOC(=O)/C=C/[C@H](C[C@@H]1CCNC1=O)NC(=O)[C@@H](CC(=O)[C@@H](NC(=O)c1cc(C)on1)C(C)C)Cc1ccc(F)cc1` [Rupintrivir, reference compound], the CC50 [2] was > 100 µM and the EC50 [7] was 0.07 µM.

With `O=C(/C=C/c1ccc(O)c(O)c1)Oc1cc(O)c2c(=O)c(O)c(-c3ccc(O)c(O)c3)oc2c1` [Compound 8] the EC50 [1, 17] was 15 µM, the CC50 at 120 h [2] was 70 µM and the CC50 at 48 h [4] was > 100 µM. The “activity against SARS-CoV-2 (words)” value [5] was “showed activity” and the EC50 [6, 20] was > 100 µM.

With `O=C(O)/C=C/c1ccc(O)c(O)c1` [Compound A8] the EC50 [1, 18] was > 100 µM, the CC50 [2] was > 100 µM and the CC50 [4] was > 100 µM. The EC50 [6, 19] was > 100 µM.

For Dextran sulphate [reference compound], the “protection of pre-treated Vero-76 monolayers from OC43 infection” value [8] was “failed to inhibit OC43 infection”.

In the case of `O=c1c(O)c(-c2ccc(O)c(O)c2)oc2cc(O)cc(O)c12` [Quercetin, reference compound], the “activity against OC43 (words)” value [1] is reported as “no activity”, the EC50 [1, 17] is reported as > 20 µM and the “activity against OC43 (words)” value ([1]; listed as quercetin) is reported as “no anti-beta coronavirus activity”. For the same molecule, the “cytotoxicity against Vero-76 cells” value [9] was “No cytotoxicity was detected”, the CC50 at 24 h [3] was > 100 µM and the CC50 at 72 h [3] was 100 µM. For the same molecule, the CC50 at 120 h [3] was 20 µM, the IC50 [10] was 6.79 µM and the CC50 at 24 h [11] was 88.7 µM. The CC50 at 72 h [11] was 61 µM, the EC50 [12] was 4.88 µM and the CC50 at 48 h ([4]; mock-infected SK-MES-1 cells, 48 h post-treatment, MTT, read-out: SK-MES-1 CC50) was > 100 µM. For the same molecule, the “activity against SARS-CoV-2 (words)” value [5] was “no activity”, the “activity against SARS-CoV-2 (words)” value ([5]; listed as quercetin) was “no anti-beta coronavirus activity” and the EC50 [7] was > 100 µM. For the same molecule, the EC50 [6, 20] was 51 µM.

For `O=C(O)/C=C/c1cccc(O)c1` [Compound A5], the EC50 [1, 18] was > 100 µM and the CC50 [2] was > 100 µM.

With `COc1cc(/C=C/C(=O)O)ccc1O` [Compound A2] the EC50 [1, 18] was > 100 µM and the CC50 [2] was > 100 µM.

With `COc1cc(/C=C/C(=O)Oc2cc(O)c3c(=O)c(O)c(-c4ccc(O)c(O)c4)oc3c2)cc(OC)c1O` [Compound 7] the selectivity index [1] was 15, the EC50 [1, 17] was 6.5 ± 0.7 µM and the “protection of pre-treated Vero-76 monolayers from OC43 infection” value [8] was “failed to inhibit OC43 infection”. For the same molecule, the “block of OC43 viral binding (adsorption)” value [13] was “efficiently able to block OC43 viral binding”, the CC50 at 24 h [2] was > 100 µM and the CC50 at 72 h [2] was > 100 µM. For the same molecule, the CC50 at 120 h [2] was 100 µM, the “reduction in the OC43 titer” value ([14]; 4 µM, Vero-76, m.o.i. 0.1) was 2 logs and the “reduction in the viral titer” value ([14]; 50, 20, 4 and 0.8 µM, Vero-76) was “significant dose-dependent reduction”. For the same molecule, the CC50 at 24 h [11] was > 100 µM, the CC50 at 72 h [11] was 70 µM and the “cytotoxicity against Caco-2 cells” value ([15]; 24 h) was “No relevant cytotoxicity”. For the same molecule, the “cytotoxicity against Caco-2 cells” value ([15]; 72 h) was “a slight increase”, the CC50 at 48 h [4] was > 100 µM and the “activity against SARS-CoV-2 (words)” value [5] was “showed activity”. For the same molecule, the EC50 [7] was > 100 µM, the EC50 [6, 20] was > 100 µM and the “virus titers of treated vs untreated samples (virucidal activity)” value [16] was “did not significantly differ”.

For `O=C(/C=C/c1cccc(O)c1)Oc1cc(O)c2c(=O)c(O)c(-c3ccc(O)c(O)c3)oc2c1` [Compound 5], the EC50 [1, 17] was > 75 µM and the CC50 at 120 h [2] was 75 µM.

For `COc1cc(/C=C/C(=O)O)ccc1O` [ferulic acid], the “activity against OC43 (words)” value [1] was “No inhibitory effect”, the “activity against SARS-CoV-2 (words)” value [5] was “No inhibitory effect” and the “activity against 229E” value [6] was “No inhibitory effect”.

In the case of `O=C(/C=C/c1ccc2c(c1)OCO2)Oc1cc(O)c2c(=O)c(O)c(-c3ccc(O)c(O)c3)oc2c1` [Compound 6], the EC50 [1, 17] is reported as 2.4 ± 0.56 µM, the CC50 at 120 h [2] is reported as 30 µM and the CC50 at 48 h [4] is reported as 33 µM. The EC50 [6, 20] was > 33 µM.
